Test results published in patent US11464780B2, “Pyrazolopyrimidine derivative and use thereof” (Simcere Pharmaceutical Co. Ltd., priority 2018, dated 2022).

Legend:
[1] = biological target: T1, Ba/F3 SLC34A2-ROS1-G2032R stably transfected cell line (Homo sapiens, UniProt P08922, G2032R, cells depend on it); assay: Cell proliferation inhibition (CellTiter-Glo); assay type: cell-based; conditions: 72 hours, read-out: The half maximal inhibitory concentration IC50 against cells, Ba/F3 SLC34A2-ROS1-G2032R
T1 construct: fused on or other part: O95436 (Sodium-dependent phosphate transport protein 2B)

[2] = biological target: T2, Ba/F3 LMNA-NTRK1-F589L stably transfected cell line (Homo sapiens, UniProt P04629, F589L, cells depend on it); assay: Cell proliferation inhibition (CellTiter-Glo); assay type: cell-based; conditions: 72 hours, read-out: The half maximal inhibitory concentration IC50 against cells, Ba/F3 LMNA-NTRK1-F589L
T2 construct: fused on or other part: P02545 (Prelamin-A/C)
T2 sequence (P04629 whole entry F589L, the tested form may be a part): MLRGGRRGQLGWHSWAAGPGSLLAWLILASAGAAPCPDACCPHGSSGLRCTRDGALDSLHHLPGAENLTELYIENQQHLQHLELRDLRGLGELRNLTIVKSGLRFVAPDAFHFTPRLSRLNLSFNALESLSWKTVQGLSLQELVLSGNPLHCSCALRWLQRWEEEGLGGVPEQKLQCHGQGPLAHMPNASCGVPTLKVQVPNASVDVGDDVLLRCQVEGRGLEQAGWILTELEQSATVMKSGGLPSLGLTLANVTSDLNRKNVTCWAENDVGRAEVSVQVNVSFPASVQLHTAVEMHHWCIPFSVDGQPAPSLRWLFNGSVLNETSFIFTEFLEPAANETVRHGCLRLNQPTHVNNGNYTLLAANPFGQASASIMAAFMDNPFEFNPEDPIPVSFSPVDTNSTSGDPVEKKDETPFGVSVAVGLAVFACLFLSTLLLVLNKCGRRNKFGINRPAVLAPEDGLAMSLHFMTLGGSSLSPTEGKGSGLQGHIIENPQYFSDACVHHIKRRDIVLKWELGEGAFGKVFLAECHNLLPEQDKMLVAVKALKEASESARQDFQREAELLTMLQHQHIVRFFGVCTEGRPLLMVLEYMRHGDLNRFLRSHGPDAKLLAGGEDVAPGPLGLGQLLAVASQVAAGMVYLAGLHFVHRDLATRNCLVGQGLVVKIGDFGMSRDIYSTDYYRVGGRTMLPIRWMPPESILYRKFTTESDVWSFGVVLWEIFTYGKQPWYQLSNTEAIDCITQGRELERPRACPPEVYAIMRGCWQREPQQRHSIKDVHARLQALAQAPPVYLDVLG

[3] = biological target: T3, Ba/F3 LMNA-NTRK1-WT stably transfected cell line (Homo sapiens, UniProt P04629); assay: Cell proliferation inhibition (CellTiter-Glo); assay type: cell-based; conditions: 72 hours, read-out: The half maximal inhibitory concentration IC50 against cells, Ba/F3 LMNA-NTRK1-WT
T3 construct: fused on or other part: P02545 (Prelamin-A/C)
T3 sequence (P04629 whole entry, stated change not applied, the tested form may be a part): as the sequence (P04629 whole entry F589L, the tested form may be a part) above, with L589F counted along it
How it was run: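 Stably transfected Ba/F3 cells (≥90% viable) were seeded overnight, then exposed in triplicate to a 9-point, 3-fold series (highest 10 μM, prepared as 10× solutions) for 72 h at 37 °C, 5% CO2. Viability was read by ATP luminescence, and IC50 came from a nonlinear sigmoidal fit.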

[4] = biological target: T4, Ba/F3 LMNA-NTRK1-G595R stably transfected cell line (Homo sapiens, UniProt P04629, G595R, cells depend on it); assay: Cell proliferation inhibition (CellTiter-Glo); assay type: cell-based; conditions: 72 hours, read-out: The half maximal inhibitory concentration IC50 against cells, Ba/F3 LMNA-NTRK1-G595R
T4 construct: fused on or other part: P02545 (Prelamin-A/C)
T4 sequence (P04629 whole entry G595R, the tested form may be a part): as the sequence (P04629 whole entry F589L, the tested form may be a part) above, with L589F, G595R counted along it

ALK = biological target: T5, ALK (Homo sapiens, UniProt Q9UM73); assay: Kinase inhibitory activity (33P-ATP filter binding, Reaction Biology Corp.); assay type: biochemical; conditions: read-out: The half maximal inhibitory concentration IC50 on the kinases, ALK
T5 construct: purchased Reaction Biology Corp. (contract assay)
T5 sequence (Q9UM73 19-1620): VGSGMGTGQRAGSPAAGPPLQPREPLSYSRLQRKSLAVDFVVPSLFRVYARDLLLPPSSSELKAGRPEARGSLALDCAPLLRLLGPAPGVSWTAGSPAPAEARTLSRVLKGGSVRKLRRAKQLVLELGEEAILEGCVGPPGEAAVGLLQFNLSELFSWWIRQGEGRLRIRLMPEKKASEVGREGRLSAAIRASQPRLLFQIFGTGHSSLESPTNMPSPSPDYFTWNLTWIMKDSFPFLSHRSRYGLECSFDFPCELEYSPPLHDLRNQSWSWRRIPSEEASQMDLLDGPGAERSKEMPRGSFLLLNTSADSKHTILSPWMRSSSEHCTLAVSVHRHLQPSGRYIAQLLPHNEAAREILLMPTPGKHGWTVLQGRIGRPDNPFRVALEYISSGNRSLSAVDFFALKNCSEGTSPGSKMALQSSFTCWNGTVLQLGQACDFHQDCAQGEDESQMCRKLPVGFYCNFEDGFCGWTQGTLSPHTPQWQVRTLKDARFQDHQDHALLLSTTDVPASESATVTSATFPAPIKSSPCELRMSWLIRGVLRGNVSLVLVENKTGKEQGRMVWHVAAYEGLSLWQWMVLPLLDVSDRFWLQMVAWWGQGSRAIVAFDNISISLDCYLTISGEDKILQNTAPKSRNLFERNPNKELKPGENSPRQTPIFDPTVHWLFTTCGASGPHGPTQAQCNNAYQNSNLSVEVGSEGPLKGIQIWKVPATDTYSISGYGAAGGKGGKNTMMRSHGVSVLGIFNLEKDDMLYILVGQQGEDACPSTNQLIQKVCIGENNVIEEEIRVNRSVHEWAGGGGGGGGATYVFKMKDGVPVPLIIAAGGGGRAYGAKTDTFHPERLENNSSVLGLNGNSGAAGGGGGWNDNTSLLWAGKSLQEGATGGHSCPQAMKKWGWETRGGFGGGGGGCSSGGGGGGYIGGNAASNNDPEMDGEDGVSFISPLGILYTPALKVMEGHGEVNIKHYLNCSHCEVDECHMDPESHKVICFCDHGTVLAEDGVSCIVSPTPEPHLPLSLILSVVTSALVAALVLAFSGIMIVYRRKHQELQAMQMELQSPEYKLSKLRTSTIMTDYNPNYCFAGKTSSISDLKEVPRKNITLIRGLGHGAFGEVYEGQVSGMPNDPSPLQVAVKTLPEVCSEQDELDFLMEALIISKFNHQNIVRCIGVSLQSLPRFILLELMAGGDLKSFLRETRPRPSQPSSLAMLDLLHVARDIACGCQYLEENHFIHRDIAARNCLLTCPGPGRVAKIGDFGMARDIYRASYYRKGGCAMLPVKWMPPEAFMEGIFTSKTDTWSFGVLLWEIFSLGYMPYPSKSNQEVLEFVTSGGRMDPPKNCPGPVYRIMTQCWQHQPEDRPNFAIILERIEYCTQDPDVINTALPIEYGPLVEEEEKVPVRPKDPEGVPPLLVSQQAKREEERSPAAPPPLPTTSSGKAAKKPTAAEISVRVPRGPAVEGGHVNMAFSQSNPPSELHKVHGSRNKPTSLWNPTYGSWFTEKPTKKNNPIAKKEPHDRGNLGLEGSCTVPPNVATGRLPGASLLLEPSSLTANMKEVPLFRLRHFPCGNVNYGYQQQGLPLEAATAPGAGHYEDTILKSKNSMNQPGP
How it was run: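 Compounds (10 concentrations, 3-fold dilutions, 2% DMSO final) preincubated 20 min at room temperature with kinase and substrate in Hepes pH 7.5 buffer. Reaction started with ^33P-ATP, 120 min at room temperature; filter-binding radioactivity expressed as activity remaining versus DMSO control, IC50 from fitted dose-response curve.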

TrkC = biological target: T6, TrkC (Homo sapiens, UniProt Q16288); assay: as above; assay type: biochemical; conditions: read-out: The half maximal inhibitory concentration IC50 on the kinases, TrkC
T6 construct: purchased Reaction Biology Corp. (contract assay)
T6 sequence (Q16288 32-839): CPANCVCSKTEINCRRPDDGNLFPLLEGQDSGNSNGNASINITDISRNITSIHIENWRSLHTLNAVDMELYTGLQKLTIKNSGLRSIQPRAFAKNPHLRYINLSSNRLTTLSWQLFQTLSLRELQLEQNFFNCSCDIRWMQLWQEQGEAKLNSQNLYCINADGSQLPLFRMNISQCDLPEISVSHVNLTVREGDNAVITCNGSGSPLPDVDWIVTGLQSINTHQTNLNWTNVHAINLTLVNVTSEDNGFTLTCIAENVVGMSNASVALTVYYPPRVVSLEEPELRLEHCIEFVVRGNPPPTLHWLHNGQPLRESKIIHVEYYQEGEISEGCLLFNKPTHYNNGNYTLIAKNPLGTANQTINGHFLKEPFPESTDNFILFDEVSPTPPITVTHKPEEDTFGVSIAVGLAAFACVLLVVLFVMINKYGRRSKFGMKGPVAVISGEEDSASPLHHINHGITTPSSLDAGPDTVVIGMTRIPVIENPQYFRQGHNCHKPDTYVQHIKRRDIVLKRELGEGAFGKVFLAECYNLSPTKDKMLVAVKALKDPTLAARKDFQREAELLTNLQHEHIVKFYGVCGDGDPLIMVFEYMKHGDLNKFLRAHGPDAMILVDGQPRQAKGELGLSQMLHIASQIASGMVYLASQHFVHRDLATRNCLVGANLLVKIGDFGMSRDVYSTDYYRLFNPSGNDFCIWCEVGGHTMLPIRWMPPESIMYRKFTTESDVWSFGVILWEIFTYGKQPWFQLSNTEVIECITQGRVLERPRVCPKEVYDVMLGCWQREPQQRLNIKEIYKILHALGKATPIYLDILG
How it was run: (§1)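 Radioactivity was read by filter binding. Activity was expressed as remaining activity relative to DMSO control, and IC50 came from dose-effect curve fitting.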

TrkA = biological target: T7, TrkA (Homo sapiens, UniProt P04629); assay: as above; assay type: biochemical; conditions: read-out: The half maximal inhibitory concentration IC50 on the kinases, TrkA
T7 construct: purchased Reaction Biology Corp. (contract assay)
T7 sequence (P04629 33-796): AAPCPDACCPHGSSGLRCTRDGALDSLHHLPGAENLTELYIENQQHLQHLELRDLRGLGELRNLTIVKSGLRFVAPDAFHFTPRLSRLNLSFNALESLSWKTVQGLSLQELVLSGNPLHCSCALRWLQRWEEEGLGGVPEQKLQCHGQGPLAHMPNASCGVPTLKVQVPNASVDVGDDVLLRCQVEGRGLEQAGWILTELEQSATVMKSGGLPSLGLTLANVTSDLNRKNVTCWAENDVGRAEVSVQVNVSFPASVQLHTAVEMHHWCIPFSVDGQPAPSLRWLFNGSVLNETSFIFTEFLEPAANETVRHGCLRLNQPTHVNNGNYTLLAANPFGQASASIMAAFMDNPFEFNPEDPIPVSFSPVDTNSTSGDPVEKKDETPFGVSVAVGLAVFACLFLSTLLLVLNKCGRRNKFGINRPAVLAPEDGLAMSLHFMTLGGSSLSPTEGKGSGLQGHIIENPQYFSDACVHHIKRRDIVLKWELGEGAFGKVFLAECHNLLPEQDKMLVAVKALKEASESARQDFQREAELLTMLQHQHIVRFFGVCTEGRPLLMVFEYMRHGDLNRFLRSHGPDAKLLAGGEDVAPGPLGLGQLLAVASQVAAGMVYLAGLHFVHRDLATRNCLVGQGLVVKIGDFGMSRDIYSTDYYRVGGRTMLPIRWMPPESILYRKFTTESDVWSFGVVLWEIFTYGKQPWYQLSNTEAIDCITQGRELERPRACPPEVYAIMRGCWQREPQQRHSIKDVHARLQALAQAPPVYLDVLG
How it was run: as §1

Ros1 = biological target: T8, Ros1 (Homo sapiens, UniProt P08922); assay: as above; assay type: biochemical; conditions: read-out: The half maximal inhibitory concentration IC50 on the kinases, Ros1
T8 construct: purchased Reaction Biology Corp. (contract assay)
How it was run: as §1

TrkA-G667C = biological target: T9, TrkA-G667C (Homo sapiens, UniProt P04629, G667C); assay: as above; assay type: biochemical; conditions: read-out: The half maximal inhibitory concentration IC50 on the kinases, TrkA-G667C
T9 construct: purchased Reaction Biology Corp. (contract assay)
T9 sequence (P04629 33-796 G667C): as the sequence (P04629 33-796) above, with G635C counted along it
How it was run: as §1

Ros-G2032R = biological target: T10, Ros-G2032R (Homo sapiens, UniProt P08922, G2032R); assay: as above; assay type: biochemical; conditions: read-out: The half maximal inhibitory concentration IC50 on the kinases, Ros-G2032R
T10 construct: purchased Reaction Biology Corp. (contract assay)
How it was run: as §1

TrkA-G595R = biological target: T11, TrkA-G595R (Homo sapiens, UniProt P04629, G595R); assay: as above; assay type: biochemical; conditions: read-out: The half maximal inhibitory concentration IC50 on the kinases, TrkA-G595R
T11 construct: purchased Reaction Biology Corp. (contract assay)
T11 sequence (P04629 33-796 G595R): as the sequence (P04629 33-796) above, with G563R counted along it
How it was run: as §1

[5] = biological target: T12, BaF3 ETV6-NTRK3-G623R stably transfected cell line (Homo sapiens, UniProt Q16288, G623R, cells depend on it); assay: Cell proliferation inhibition (CellTiter-Glo); assay type: cell-based; conditions: 72 hours, read-out: The half maximal inhibitory concentration IC50 against cells, BaF3 ETV6-NTRK3-G623R
T12 construct: fused on or other part: P41212 (Transcription factor ETV6)
T12 sequence (Q16288 whole entry G623R, the tested form may be a part): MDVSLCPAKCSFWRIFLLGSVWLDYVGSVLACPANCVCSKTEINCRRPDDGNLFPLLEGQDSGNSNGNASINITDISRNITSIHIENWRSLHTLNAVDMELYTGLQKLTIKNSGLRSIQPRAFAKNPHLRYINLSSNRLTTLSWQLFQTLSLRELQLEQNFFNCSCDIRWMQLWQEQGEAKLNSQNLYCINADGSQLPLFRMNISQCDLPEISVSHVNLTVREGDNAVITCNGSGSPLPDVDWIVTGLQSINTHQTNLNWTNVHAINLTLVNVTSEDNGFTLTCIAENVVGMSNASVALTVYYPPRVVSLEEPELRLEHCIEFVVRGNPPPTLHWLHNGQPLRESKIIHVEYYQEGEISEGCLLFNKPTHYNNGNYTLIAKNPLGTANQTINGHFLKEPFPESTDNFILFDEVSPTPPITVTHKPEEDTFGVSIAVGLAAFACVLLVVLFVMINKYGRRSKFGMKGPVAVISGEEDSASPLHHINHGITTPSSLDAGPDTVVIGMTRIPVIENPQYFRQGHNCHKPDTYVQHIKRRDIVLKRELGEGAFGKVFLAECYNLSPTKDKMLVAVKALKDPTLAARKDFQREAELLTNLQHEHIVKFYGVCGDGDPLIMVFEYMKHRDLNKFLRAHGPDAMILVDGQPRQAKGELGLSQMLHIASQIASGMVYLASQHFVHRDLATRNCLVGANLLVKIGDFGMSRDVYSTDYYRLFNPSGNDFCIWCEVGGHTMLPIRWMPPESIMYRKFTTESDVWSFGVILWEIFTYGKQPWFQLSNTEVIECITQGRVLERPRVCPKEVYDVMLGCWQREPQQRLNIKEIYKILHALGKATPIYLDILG

GI50 [1] | GI50 [2] | GI50 [3] | GI50 [4] | IC50 (ALK) | IC50 (TrkC) | IC50 (TrkA) | IC50 (Ros1) | IC50 (TrkA-G667C) | IC50 (Ros-G2032R) | IC50 (TrkA-G595R) | GI50 [5] | SMILES
16.1 nM | 0.78 nM | 1.26 nM | 6.2 nM | 13 nM | 0.14 nM | 2.07 nM | 0.14 nM | 7 nM | 0.4 nM | 3.6 nM | 3.4 nM | O=C1NC2(CC2)COc2ncc(F)cc2[C@H]2CCON2c2ccn3ncc1c3n2 [WX002A]
38.5 nM | 1.59 nM | 1.6 nM | 3.92 nM | 10.4 nM | 0.05 nM | 1.61 nM | 0.16 nM | 6.49 nM | 0.52 nM | 2.31 nM | 3.49 nM | O=C1N[C@@H]2COC[C@@H]2Oc2ncc(F)cc2[C@H]2CCON2c2ccn3ncc1c3n2 [WX008A]
